In US20090029366A1 (priority 2007, published 2009):

What was measured:
human HCN1 [1] = biological target: T1, human HCN1 (Homo sapiens, UniProt O60741); assay: MPSD FLIPR 96 well hyperpolarization assay, HCN1; type: cell-based; parameters: blockade of hyperpolarization (change in fluorescence), FIG. 4 legend: dose or concentration left out as unconfirmed
T1 construct: expressed in transfected cells; host or cells: HEK-293H
T1 sequence (O60741 1-890): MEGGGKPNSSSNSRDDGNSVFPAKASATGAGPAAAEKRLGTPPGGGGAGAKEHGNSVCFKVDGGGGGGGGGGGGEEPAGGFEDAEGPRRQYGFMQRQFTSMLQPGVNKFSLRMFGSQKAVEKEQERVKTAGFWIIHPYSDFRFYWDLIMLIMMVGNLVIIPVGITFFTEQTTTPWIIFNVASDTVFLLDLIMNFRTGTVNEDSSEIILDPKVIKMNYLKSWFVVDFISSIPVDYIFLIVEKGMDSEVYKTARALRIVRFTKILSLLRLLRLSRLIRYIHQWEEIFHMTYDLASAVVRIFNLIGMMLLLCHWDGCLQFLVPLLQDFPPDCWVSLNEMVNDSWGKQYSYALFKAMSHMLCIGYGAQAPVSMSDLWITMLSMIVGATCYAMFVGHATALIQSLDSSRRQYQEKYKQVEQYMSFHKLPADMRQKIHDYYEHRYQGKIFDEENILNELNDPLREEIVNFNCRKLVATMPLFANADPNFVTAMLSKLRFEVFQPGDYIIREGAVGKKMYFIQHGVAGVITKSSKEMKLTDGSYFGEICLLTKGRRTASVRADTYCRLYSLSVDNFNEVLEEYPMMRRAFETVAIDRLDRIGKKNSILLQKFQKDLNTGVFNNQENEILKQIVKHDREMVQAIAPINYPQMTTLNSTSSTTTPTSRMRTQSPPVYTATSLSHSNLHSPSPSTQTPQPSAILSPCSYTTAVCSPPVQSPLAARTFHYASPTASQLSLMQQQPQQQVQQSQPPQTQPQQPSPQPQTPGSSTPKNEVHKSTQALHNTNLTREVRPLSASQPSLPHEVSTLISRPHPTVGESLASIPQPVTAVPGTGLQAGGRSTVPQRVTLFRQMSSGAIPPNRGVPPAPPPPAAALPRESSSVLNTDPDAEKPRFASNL
Protocol: The above-described assay was modified for use with the FLIPR®^96 or FLEX^96 96 well plate format. In brief, cells stably expressing HCN channels were plated at 40-80×10^3 cells/plate in 100-150 μl/well of DMEM supplemented with 10% fetal bovine serum, 1× NEAA, and 1× penicillin/streptomycin. Cells were cultured for 24-48 hours in a 5% CO2/air humidifiedincubator at 37° C. Cells were incubated in 30 μl/well of HBSS containing MPSD, as described above, for 15-45 minutes at room temperature.
Membrane potentials were measured at room temperature (21°-23°) using a FLIPR® system or a FLEXSTATION® (Molecular Devices of Sunnydale, Calif.). Control cells were incubated in HBSS/MPSD without a test agent. For identification of HCN channel modulators, cells were incubated in HBSS/MPSD and the presence of a test agent as described in Examples 5 and 6 herein below.
HEK-293H cells stably expressing HCN1 or HCN3 channels were each plated at 40-80×10^3 cells/plate in a FLIPR®^96 well format in 100-150 μl/ well of DMEM supplemented with 10% fetal bovine serum and penicillin/streptomycin. The cells were cultured for 24-48 hours in a 5% CO2/air humidified incubatorat 37° C.
[…] Cells were incubated for 15 to 45 minutes. […] The change in fluorescence (ΔF) was measured for a total assay time of about 100 seconds. […]

human HCN1 [2] = biological target: T1, human HCN1; assay: MPSD FLIPR 384 well hyperpolarization assay, HCN1; type: cell-based
Protocol: HEK-293H cells stably expressing human HCN1, HCN2, or HCN3 channel were plated at a density of 45-50×10^3 cells/well in a 384 well format fluorescent imaging plate reader system (FLIPR®^384) in 50 μl/well of DMEM supplemented with 10% fetal bovine serum and penicillin/streptomycin. The cells were cultured for 24-48 hours in a 5% CO2/air humidified incubator at 37° C.
The cells seeded on the microtiter plates were incubated in 50 μl HBSS, as described in Example 2. Optionally, HBSS was supplemented with about 25 mM of KCl to further enhance the assay window. A membrane potential sensitive dye (MPSD), Component-A of the Membrane Potential Assay Kit, (Product No. R-8034, Molecular Devices Corporation of Sunnyvale, Calif.) was dissolved in the HBSS solution (1 vial/0.5 L). The excess saline was removed to fit the residual volume of about 1 μl to 5 μl. […]
Membrane potentials were measured at room temperature (21°-23°) for each of the above-described saline conditions using a fluorescent imaging plate reader system (FLIPR®, Molecular Devices of Sunnyvale, Calif.). […]
HEK-293H cells stably expressing human HCN1 channel were plated as described in Example 3 above. […] The change in fluorescence (ΔF) was measured for a total assay time of about 180 seconds. […]

CCN(c1ccccc1)c1cc(=NC)n(C)c(C)n1.Cl [ZD7288]
effectively blocked hyperpolarization: blockade of hyperpolarization (change in fluorescence) (human HCN1 [1]; 50 μM ZD7288, HEK-293H HCN1, about 100 seconds) | blockade of hyperpolarization (change in fluorescence), FIG. 4 legend (human HCN1 [1]; cells expressing HCN1) | blockade of hyperpolarization (change in fluorescence) (human HCN1 [2]; 30 μM ZD7288, HEK-293H HCN1, about 180 seconds) | blockade of hyperpolarization (change in fluorescence), FIG. 5 legend (human HCN1 [2]; 50 μM ZD7288, cells expressing HCN1)
